Data from patent publication US10093628B2, “Competitive PPAR-gamma antagonists” (FRAUNHOFER-GESELLSCHAFT ZUR FÖRDERUNG DER ANGEWANDTEN …, priority 2014, dated 2018).

Key:
[1] = molecular target: T1, PPARγ (Homo sapiens, UniProt P37231); experiment: PPARγ-dependent transactivation assay in HEK293T cells; assay type: cell-based; design: the vector pFA-PPARγ-LBD-GAL4-DBD encoding the hybrid protein PPARγ-LBD-GAL4-DBD; expressed in transfected cells; host or cells: HEK293T cells; (transient transfection); conditions: for antagonistic effects on the time-course of the response to agonist stimulation: 10 μM compound, 1 μM rosiglitazone; for inhibition of the rosiglitazone-induced transactivation of PPARγ: 1 or 10 μM compound with 0.1-10 μM rosiglitazone
T1 sequence (P37231 238-503 limits assumed): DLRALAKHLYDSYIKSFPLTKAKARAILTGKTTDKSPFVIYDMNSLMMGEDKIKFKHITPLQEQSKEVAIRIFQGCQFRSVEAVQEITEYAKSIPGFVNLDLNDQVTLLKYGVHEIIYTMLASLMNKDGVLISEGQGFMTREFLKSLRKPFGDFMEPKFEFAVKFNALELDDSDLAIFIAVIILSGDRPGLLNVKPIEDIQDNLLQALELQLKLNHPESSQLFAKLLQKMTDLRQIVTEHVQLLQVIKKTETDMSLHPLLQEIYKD
Protocol: For the PPARγ-dependent transactivation assay, 1×10^4 HEK293T cells per well were seeded in 96-well plates and cultured overnight as described above to allow attachment of the HEK293T cells. The next day, the HEK293T cells were transiently transfected using the JetPRIME™ transfection reagent (PEQLAB Biotechnologie GmbH, Erlangen, Germany), as described by the manufacturer, with 0.01 μg per well pFA-PPARγ-LBD-GAL4-DBD, kindly provided by Prof. Dr. Manfred Schubert-Zsilavecz (Institute of Pharmaceutical Chemistry, Department of Biochemistry, Chemistry and Pharmacy, Goethe-University Frankfurt am Main, Germany), 0.09 μg per well pFR-Luc (Stratagene, La Jolla, USA) and 0.0005 μg per well pRL-CMV (Promega GmbH, Mannheim, Germany). After 4 h, the transfection medium was replaced and the HEK293T cells were cultured in fresh growth medium for another 24 h. For the transient transfection of 1×10^6 HuT-78 cells and Jurkat T cells per well, the SuperFect™ transfection reagent (QIAGEN GmbH, Hilden, Germany) was used as described by the producer with 0.2 μg per well pFA-PPARγ-LBD-GAL4-DBD, 0.8 μg per well pFR-Luc and 0.05 μg per well pRL-CMV. After 24 h, 1 ml fresh growth medium was added and the cells were cultured for another 48 h. The PPARγ-dependent transactivation assay in HEK293T cells using a 96-well plate format was performed in quadruple and in HuT-78 cells and Jurkat T cells using a 12-well plate format in triplicate.
(§1) The PPARγ-dependent transactivation assay is based on the vector pFA-PPARγ-LBD-GAL4-DBD encoding the hybrid protein PPARγ-LBD-GAL4-DBD and the reporter vector pFR-Luc, carrying a GAL4-responsive element in front of the Firefly luciferase gene. These two vectors were co-transfected, as described above, in combination with the control vector pRL-CMV, encoding Renilla luciferase, to normalize Firefly luciferase activity for transfection efficiency. […] Transactivation was analysed using a 96-well plate format in a Mithras LB940 multimode reader (Berthold Technologies, Bad Wildbad, Germany). The IC50 value for MTTB was determined by fitting the data to a sigmoidal dose-response curve using the GraphPad Software Prism (La Jolla, USA).
Firefly luciferase luminescence values and control Renilla luciferase luminescence values were determined in each sample. The ratios of Firefly to Renilla luciferase luminescence were used to normalize luciferase activity values.

[2] = tested on: HEK293T cells; experiment: Intracellular accumulation by LC-MS/MS, HEK293T cells; assay type: in vitro ADME, human
From the text: (§2) Accumulation was expressed as a percentage of the ratio of intracellular to extracellular concentration (I/E).

[3] = tested on: Jurkat T cells; experiment: Intracellular accumulation by LC-MS/MS, Jurkat T cells; assay type: in vitro ADME
From the text: as §2

[4] = tested on: HEK293T cells; experiment: Cell viability, MTT assay, HEK293T cells; assay type: cell-based, human; conditions: 24 h
Protocol: (§3) HuT-78 cells, Jurkat T cells and HEK293T cells, were seeded in 96-well plates at a density of 5×10^4 cells per well and cultured overnight as described above to allow attachment of the HEK293T cells. […] As control, DMSO alone was used. After 24 h stimulation, 3-(4, 5-dimethylthiazol-2-yl)-2, 5-diphenyltetrazolium bromide (MTT) solution (5 mg ml-1 in phosphate buffered saline (PBS)) was added and the cells were incubated for two more hours at 37° C. (Mosmann, 1983). Afterwards, the cells were lysed with MTT lysis buffer. Following cell lysis, cell viability was measured at an absorbance of 560 nm in a Mithras LB940 multimode reader. The cell viability studies using a 96-well plate format were performed in octet.

[5] = tested on: Jurkat T cells; experiment: Cell viability, MTT assay, Jurkat T cells; assay type: cell-based
Protocol: as §3

[6] = molecular target: T1, PPARγ; experiment: PPARγ-dependent transactivation assay in Jurkat T cells; assay type: cell-based; design: the vector pFA-PPARγ-LBD-GAL4-DBD encoding the hybrid protein PPARγ-LBD-GAL4-DBD; expressed in transfected cells; host or cells: HEK293T cells; Jurkat T cells (transient transfection); conditions: for inhibition of the rosiglitazone-induced transactivation of PPARγ / agonistic effects (transactivation of PPARγ by the compound alone): 24 h; for inhibition of the rosiglitazone-induced transactivation of PPARγ: 1 or 10 μM compound with 0.1-10 μM rosiglitazone
Protocol: as §1, with “Dr. […] Schubert-Zsilavecz (Institute of Pharmaceutical Chemistry, Department of Biochemistry, Chemistry and Pharmacy, Goethe-University Frankfurt am Main, Germany), 0.09 μg per well pFR-Luc (Stratagene, La Jolla, USA) and 0.0005 μg per well pRL-CMV (Promega GmbH, Mannheim, Germany). After 4 h, the transfection medium was replaced and the HEK293T cells were cultured in fresh growth medium for another 24 h. […] After 24 h, 1 ml fresh growth medium was added and the cells were cultured for another 48 h. The PPARγ-dependent transactivation assay in HEK293T cells using a 96-well plate format was performed in quadruple and in HuT-78 cells and Jurkat T cells using a 12-well plate format in triplicate. The PPARγ-dependent” for “The PPARγ-dependent”

[7] = tested on: HuT-78 cells; experiment: Intracellular accumulation by LC-MS/MS, HuT-78 cells; assay type: in vitro ADME, human
From the text: as §2

[8] = tested on: HuT-78 cells; experiment: Cell viability, MTT assay, HuT-78 cells; assay type: cell-based, human
Protocol: as §3

[9] = HEK293T cells, 24 h, compound alone

Question: What does the source list for `CC(C)C[C@H](NC(=O)OCC1c2ccccc2-c2ccccc21)C(=O)O` [FMOC-L-leucine, N-(9-fluorenylmethoxycarbonyl)-L-leucine]?
Answer: antagonistic effects on the time-course of the response to agonist stimulation ([1]; HEK293T cells): non-existent antagonistic effects; agonistic effects (transactivation of PPARγ by the compound alone) [1, 9]: no agonistic effects

Question: Which “intracellular accumulation, fold lower compared to MTTB” value ([2]; 10 μM) does the source give for `O=C(Nc1ccccc1)c1cc([N+](=O)[O-])ccc1Cl` [GW9662, 2-chloro-5-nitrobenzanilide] here?
Answer: 10 fold

Question: What about the “antagonistic effects on the time-course of the response to agonist stimulation” value ([1]; HEK293T cells) of the same compound?
Answer: inhibited the time-course of the response to agonist

Question: What about the “inhibition of the rosiglitazone-induced transactivation of PPARγ” value (“inhibition” below) ([1]; HEK293T cells, 24 h) of the same compound?
Answer: full antagonism

Question: And the “agonistic effects (transactivation of PPARγ by the compound alone)” value [1, 9]?
Answer: surprisingly high agonistic effects

Question: What about the “intracellular accumulation, fold less than that of MTTB” value ([3]; 10 μM) of the same compound?
Answer: about 100 fold

Question: What about the “concentrations without cytotoxic effects / loss of viability” value [4] of the same compound?
Answer: ≤ 30 µM

Question: And the “concentrations at which clearly cytotoxic” value ([5]; MTT, 24 h)?
Answer: > 30 µM

Question: And the “inhibition” value [6]?
Answer: full antagonism

Question: And the “agonistic effects (transactivation of PPARγ by the compound alone)” value ([6]; compound alone)?
Answer: surprisingly high agonistic effects

Question: And the “PPARγ transactivation by the compound alone” value ([6]; compound alone, dose-independent)?
Answer: approximately 3 fold

Question: What about the “intracellular accumulation, fold less than that of MTTB” value ([7]; 10 μM) of the same compound?
Answer: about 100 fold

Question: What about the “concentrations at which clearly cytotoxic” value ([8]; MTT, 24 h) of the same compound?
Answer: above 20 μM

Question: For `O=C1NC(=O)C(Cc2ccc3cc(OCc4ccccc4F)ccc3c2)S1` (centres unmarked) [MCC-555, netoglitazone], which “antagonistic effects on the time-course of the response to agonist stimulation” value ([1]; HEK293T cells) is on record?
Answer: non-existent antagonistic effects

Question: And the “concentrations that transactivated PPARγ” value [1, 9]?
Answer: above 1 μM

Question: For `CCCC/C(=C\c1cc(OCc2ccc3nc(C(F)(F)F)cc(OC)c3c2)ccc1OCc1ccc(C(F)(F)F)cc1)C(=O)O` [MTTB, (E)-2-(5-((4-methoxy-2-(trifluoromethyl)quinolin-6-yl)methoxy)-2-((4-(trifluoromethyl)benzyl)oxy)-benzylidene) hexanoic acid], which “uptake, fold higher than of GW9662” value [2] is on record?
Answer: 10 fold

Question: What about the “intracellular accumulation (intracellular as percentage of extracellular concentration)” value ([2]; 10 μM, after 24 h) of the same compound?
Answer: approximately 25%

Question: What about the IC50 [1] of the same compound?
Answer: 4.3 µM

Question: And the “inhibition” value ([1]; HEK293T cells, 24 h)?
Answer: dose-dependent inhibition

Question: And the “agonistic effects (transactivation of PPARγ by the compound alone)” value [1, 9]?
Answer: no agonistic effect

Question: What about the “intracellular accumulation, fold higher as compared to GW9662” value [3] of the same compound?
Answer: approximately 100 fold

Question: And the “intracellular accumulation (intracellular as percentage of extracellular concentration)” value ([3]; 10 μM, after 24 h)?
Answer: approximately 10%

Question: And the “concentrations without cytotoxic effects / loss of viability” value [4]?
Answer: up to 10 μM

Question: And the “cytotoxicity in contrast to GW9662” value [5]?
Answer: less cytotoxicity

Question: What about the “concentrations without cytotoxic effects” value ([5]; MTT, 24 h) of the same compound?
Answer: up to 10 μM

Question: What about the “inhibition” value [6] of the same compound?
Answer: dose-dependent inhibition

Question: And the “agonistic effects (transactivation of PPARγ by the compound alone)” value ([6]; compound alone)?
Answer: no agonistic effect

Question: And the “intracellular accumulation, fold higher as compared to GW9662” value [7]?
Answer: approximately 100 fold

Question: What about the “intracellular accumulation (intracellular as percentage of extracellular concentration)” value ([7]; 10 μM, after 24 h) of the same compound?
Answer: approximately 10%

Question: What about the “cytotoxicity in contrast to GW9662” value [8] of the same compound?
Answer: less cytotoxicity

Question: And the “concentrations without cytotoxic effects” value ([8]; MTT, 24 h)?
Answer: up to 10 μM
